SMILES strings stand for the structures. ≈ marks a conversion by molar mass, not a printed value.

As a reminder, the half-life is the time in which the quantity being followed falls by half. Broadly, the solubility is the concentration that dissolves in the medium under given conditions. Lower therefore signals little dissolved substance. By Tmax is commonly meant the time from dosing to the highest level. What is called AUC(0-t) is the area under the concentration-time curve up to a stated or last time point. High values mean high exposure, low ones low exposure. As a reminder, the Cmax is the maximum level reached in the sampled fluid or tissue.

The nature of data set [1]: Chemical stability of compound in aqueous solution assessed as half life at 100 ug/ml and pH 4. It is filed as physicochemical.
Data set [2] can be described thus: Chemical stability of compound in aqueous solution assessed as half life at 100 ug/ml and pH 7.4. Type of data set: physicochemical.
The nature of data set [3]: Aqueous solubility of compound at pH 6.5. It is filed as physicochemical. The conditions noted are these: aqueous solution.
Data set [4] can be described thus: Chemical stability of compound in aqueous solution assessed as half life at 100 ug/ml and pH 1. Type of data set: physicochemical.
Data set [5] is described as follows: Aqueous solubility of compound at pH 2. Type of data set: physicochemical. The conditions noted are these: aqueous solution.
The nature of data set [6]: Drug concentration in Beagle dog plasma at 3 mg/kg, po measured at 24 hrs. Type of data set: ADME, organism-based, Canis lupus familiaris.
Data set [7] can be described thus: Tmax in Beagle dog at 3 mg/kg, po. Type of data set: ADME, organism-based, Canis lupus familiaris. The conditions noted are these: in vivo.
The nature of data set [8]: Oral bioavailability in Beagle dog at 3 mg/kg. It is filed as ADME, organism-based, Canis lupus familiaris. The conditions noted are these: in vivo.
Data set [9] in a line: AUC (0 to 24 hrs) in Beagle dog at 3 mg/kg, po. The conditions noted are these: in vivo. Also noted: time < 24 hr, dose 3 mg/kg, route oral. Type of data set: ADME, organism-based, Canis lupus familiaris.
Data set [10] can be described thus: Cmax in Beagle dog at 3 mg/kg, po. The conditions noted are these: in vivo. Type of data set: ADME, organism-based, Canis lupus familiaris. Also noted: dose 3 mg/kg, route oral.

Take `O=C(NSc1ccccc1)[C@@H](CCC(F)(F)F)N(Cc1ccc(-c2ncon2)cc1F)S(=O)(=O)c1ccc(Cl)cc1`: the half-life at 100 ug/ml in data set [1] is greater than 500 h; in data set [2] it was 268 h; in data set [4], greater than 500 h. The solubility in data set [3] and in data set [5] was less than 1 µg/mL throughout.
With `N[C@@H](CSNC(=O)[C@@H](CCC(F)(F)F)N(Cc1ccc(-c2ncon2)cc1F)S(=O)(=O)c1ccc(Cl)cc1)C(=O)O`, the half-life at 100 ug/ml in data set [1] is 418 h; in data set [2], 72 h; in data set [4] it was greater than 500 h. Further, the results for the solubility in data set [3] and in [5] were 260 µg/mL (≈ 406 µM) and 510 µg/mL (≈ 797 µM), respectively.
`COC(=O)[C@@H](N)CSNC(=O)[C@@H](CCC(F)(F)F)N(Cc1ccc(-c2ncon2)cc1F)S(=O)(=O)c1ccc(Cl)cc1`: the concentration at 24 h in data set [6] was in the range of 90 to 474 nM. Also, the half-life at 100 ug/ml was 185 h in data set [1], 15 h in data set [2] and greater than 500 h in data set [4]. The Tmax in data set [7] was determined as 2 h. Moreover, the solubility in data set [3] turned out to be 21 µg/mL (≈ 32.1 µM); in data set [5], 3900 µg/mL (≈ 5960 µM). Also, the bioavailability in [8] lay in the range of 107 to 115%. Besides, the AUC(0-t) at 24 h in data set [9] was in the range of 6.03 to 15.8 µM·h. Besides, in [10], the Cmax was in the range of 707 to 1170 nM.
In the case of `CCOC(=O)[C@@H](N)CSNC(=O)[C@@H](CCC(F)(F)F)N(Cc1ccc(-c2ncon2)cc1F)S(=O)(=O)c1ccc(Cl)cc1`, the results for the half-life at 100 ug/ml in [1], in [2] and in data set [4] were 258 h, 23 h and greater than 500 h, respectively. In addition, the solubility in data set [3] was determined as 10 µg/mL (≈ 15 µM); in [5] it was 4300 µg/mL (≈ 6440 µM).
On the same counts, the results for `N#CCCSNC(=O)[C@@H](CCC(F)(F)F)N(Cc1ccc(-c2ncon2)cc1F)S(=O)(=O)c1ccc(Cl)cc1` are greater than 500 h, 197 h, greater than 500 h, less than 1 µg/mL and less than 1 µg/mL.
With `NCCSNC(=O)[C@@H](CCC(F)(F)F)N(Cc1ccc(-c2ncon2)cc1F)S(=O)(=O)c1ccc(Cl)cc1`, the half-life at 100 ug/ml in data set [1] was greater than 500 h; in data set [2], 52 h; in [4], greater than 500 h. Besides, the solubility is 321 µg/mL (≈ 539 µM) in [3] and greater than 10000 µg/mL in data set [5].
`NC(=O)[C@@H](CCC(F)(F)F)N(Cc1ccc(-c2ncon2)cc1F)S(=O)(=O)c1ccc(Cl)cc1` [AVAGACESTAT] gave a concentration at 24 h in data set [6] of 98 to 442 nM. The Tmax in data set [7] lay in the range of 1 to 2 h. Besides, in [3], the solubility was less than 1 µg/mL. Moreover, in data set [9], the AUC(0-t) at 24 h fell in the range of 5.25 to 14.6 µM·h. The molecule also registered a Cmax in data set [10] of 881 to 1150 nM.

Source of the values: ChEMBL document CHEMBL4610023, “An amide-based sulfenamide prodrug of gamma secretase inhibitor BMS-708163 delivers parent drug from an oral conventional solid dosage form in male beagle dog” (Bioorg Med Chem Lett, 2020).
